Test system: amphetamine-induced rats
Settings: Study 1, 2.5 mg/kg, compared to vehicle-amphetamine group
Method: Locomotor activity of the rats was tested in open field arena.

## COc1cc2c(cc1OC)[C@@H]1C[C@H](O)[C@@H](CC(C)C)CN1CC2 [(−)-α-DHTBZ, (2S, 3S, 11bS)-3-isobutyl-9,10-dimethoxy-1,3,4,6,7,11b-hexahydro-2H-pyrido[2,1,a]isoquinolin-2-ol]
  stereotypic behaviour: did not lead to lower locomotor activity or reduced stereotypic behaviour
Listed as (−)-α-isomer
  locomotor activity (distance travelled): very little, if any, reduction

From patent US11844786B2 (ADEPTIO PHARMACEUTICALS LIMITED, priority 2017, dated 2023)
